Measurements as given in patent publication US4954488A, “Method of treating hyperaldosteronism using 17β-cyclopropylaminoandrostene derivatives” (Merrell Dow Pharmaceuticals Inc., priority 1989, dated 1990).

Target: T1, enzymes in the synthesis of aldosterone (Rattus norvegicus, UniProt P30099)
T1 construct: From these animals, adrenal capsule/glomerulosa homogenates were prepared; from tissue; host or cells: adrenal capsule/glomerulosa homogenate of sodium-deficient young male Sprague-Dawley rats
Assay: Inhibition of aldosterone formation from [3H]-DOC in rat adrenal capsule/glomerulosa homogenates
Type: biochemical, Sprague-Dawley rats
Conditions: pH 7.4, 25° C.; for IC50: 40 minute preincubation data, 10-minute assay, 1 μM [3H]-DOC, read-out: IC50 (half-maximal inhibition of aldosterone formation); for t50 (t1/2 for enzyme inactivation at infinite inhibitor concentration) / Ki: linear regression of t1/2 vs. 1/[I], Kitz-Wilson plots; for Ki: read-out: Ki for time-dependent inhibition
Procedure: Young male Sprague-Dawley rats were maintained on a sodium-deficient diet for about two weeks prior to use. From these animals, adrenal capsule/glomerulosa homogenates were prepared (6 mg/ml) in pH 7.4 assay buffer [MgCl2 8.5 mM, CaCl2 2.7 mM, KCl 3.13 mM, NaCl 7.591 mM, TRIS 50 mM and 0.1% triethylamine] and centrifuged 500xg for 10 minutes.
Assays were conducted in 35 ml glass tubes maintained at 25° C. in a Dubnoff shaker with 95% O2 /5% CO2. The tubes contained the following material: 100 μl of an NADPH^+ generating system, 300 μl of adrenal capsular/glomerulosa cytosol, and 50 μl of test compound or buffer (control). After initial preincubation intervals of 20 minutes, the 10-minute assay was started by the addition of 50 μl of tritium-labelled substrate, i.e., 1 μM [^3 H]-DOC. Reactions were quenched by the addition of 5 ml of ethyl acetate and non-radiolabelled steroids were also added. The samples were extracted twice with 5 ml of ethyl acetate and the solvent evaporated under nitrogen at 30°-40° C.
Residues were redissolved in methanol:water (40:60) with 0.1% triethylamine and high performance liquid chromatography was used to separate products on a C18 reverse phase (5μ ODS-Hypersil) column (4.6×250 mm, Shannon) with a 1 ml/min flow rate using an MeOH:H20 gradient (solvent A 10/90:solvent B 90/10).
Substrate remaining and products formed were monitored by UV absorbance at 246 nm and the amount of steroid compound present was quantified by [^3 H] radioactivity. The concentration of compound to produce half-maximal inhibition (IC50) of aldosterone formation from the 40 minute preincubation data was graphically estimated from a linear-log plot of percent inhibition vs. log of the compound concentration. The Ki for time-dependent inhibition and the t1/2 for enzyme inactivation at infinite inhibitor concentration (t50) was determined by the linear regression analyses of t1/2 vs. 1/[I] data of Kitz-Wilson plots. Using this procedure, the following results were observed: […]

Structure (SMILES) | IC50 [nM] | t50 (t1/2 for enzyme inactivation at infinite inhibitor concentration) [min] | Ki [nM]
C[C@]12CC[C@H]3[C@@H](CCC4=CC(=O)CC[C@@]43C)[C@@H]1CC[C@@H]2NC1CC1 [17β-(Cyclopropylamino)androst-4-en-3-one] | 180 | – | –
C[C@]12CC[C@H]3[C@@H](CC=C4C[C@@H](O)CC[C@@]43C)[C@@H]1CC[C@@H]2NC1CC1 [17β-(Cyclopropylamino)androst-5-en-3β-ol] | 1100 | 9.7 | 4850
CN(C1CC1)[C@H]1CC[C@H]2[C@@H]3CC=C4C[C@@H](O)CC[C@]4(C)[C@H]3CC[C@]12C [17β-[N-Methyl(cyclopropylamino)]-androst-5-en-3β-ol] | 350 | 9.0 | 350
CN(C1CC1)[C@H]1CC[C@H]2[C@@H]3CCC4=CC(=O)CC[C@]4(C)[C@H]3CC[C@]12C [17β-[N-Methyl(cyclopropylamino)]androst-4-en-3-one] | 130 | 15.4 | 140
